Measured values reported in patent US7205305B2, “Inhibitors of p38” (Vertex Pharmaceuticals Incorporated, priority 1996, dated 2007).

What was measured:
activated p38 = activated p38 (Homo sapiens, UniProt Q16539); test: Inhibition of phosphorylation of EGF receptor peptide ("kinase"); type: biochemical; settings: inhibition of phosphorylation of EGF receptor peptide by activated p38
Method in brief: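 Activated p38 was preincubated with inhibitor for 15 min at room temperature in 100 mM HEPES pH 7.6, 10 mM MgCl2, 25 mM β-glycerophosphate, 10% glycerol, 5% DMSO final. Reaction used 200 μM EGF receptor peptide and 100 μM ATP for 30 min at 30° C. TFA-quenched phosphopeptide was quantified by reverse-phase HPLC.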

[1] = tested on: IL-1 production in whole blood; test: Inhibition of IL-1 production in LPS-stimulated whole blood ("WB"); type: cell-based, human; settings: Homo sapiens
Method: (§1) Inhibitors were serially diluted in DMSO from a 20 mM stock. At least 6 serial dilutions were prepared. Then 4× inhibitor stocks were prepared by adding 4 μl of an inhibitor dilution to 1 ml of RPMI1640 medium/10% fetal bovine serum. The 4× inhibitor stocks contained inhibitor at concentrations of 80 μM, 32 μM, 12.8 μM, 5.12 μM, 2.048 μM, 0.819 μM, 0.328 μM, 0.131 μM, 0.052 μM, 0.021 μM etc. The 4× inhibitor stocks were pre-warmed at 37° C. until use.
(§2) Alternatively, whole blood containing an anti-coagulant was used directly in the assay.
(§3) We placed 100 μl of cell suspension or whole blood in each well of a 96-well cell culture plate. Then we added 50 μl of the 4× inhibitor stock to the cells. Finally, we added 50 μl of a lipopolysaccharide (LPS) working stock solution (16 ng/ml in cell culture medium) to give a final concentration of 4 ng/ml LPS in the assay. The total assay volume of the vehicle control was also adjusted to 200 μl by adding 50 μl cell culture medium. The PBMC cells or whole blood were then incubated overnight (for 12–15 hours) at 37° C./5% CO2 in a humidified atmosphere.
(§4) The next day the cells were mixed on a shaker for 3–5 minutes before centrifugation at 500×g for 5 minutes. Cell culture supernatants were harvested and analyzed by ELISA for levels of IL-1b (R & D Systems, Quantikine kits, #DBL50), TNF-α (BioSource, #KHC3012), IL-6 (Endogen, #EH2-IL6) and IL-8 (Endogen, #EH2-IL8) according to the instructions of the manufacturer. The ELISA data were used to generate dose-response curves from which IC50 values were derived.

[2] = tested on: TNF production in whole blood; test: Inhibition of TNF production in LPS-stimulated whole blood ("WB"); type: cell-based, human; settings: Homo sapiens
Method: as §1, §2, §3, §4

[3] = tested on: IL-6 production in whole blood; test: Inhibition of IL-6 production in LPS-stimulated whole blood ("WB"); type: cell-based, human; settings: Homo sapiens
Method: as §1, §2, §3, §4

[4] = tested on: IL-1 production in LPS-stimulated PBMCs; test: Inhibition of IL-1 production in LPS-stimulated PBMCs ("cell"); type: cell-based, human; settings: Homo sapiens, PBMC
Method in brief: (§5)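 Cytokine levels (IL-1β, TNF-α) in culture supernatants quantified by ELISA, with IC50 taken from dose-response curves. Fresh human PBMCs in RPMI1640 with 10% FBS received serially diluted compound plus LPS (4 ng/ml final) and were cultured 12–15 h at 37 °C, 5% CO2.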

[5] = tested on: TNF production in LPS-stimulated PBMCs; test: Inhibition of TNF production in LPS-stimulated PBMCs ("cell"); type: cell-based, human; settings: Homo sapiens, PBMC
Method in brief: as §5

Sequence of activated p38 (Q16539 whole entry): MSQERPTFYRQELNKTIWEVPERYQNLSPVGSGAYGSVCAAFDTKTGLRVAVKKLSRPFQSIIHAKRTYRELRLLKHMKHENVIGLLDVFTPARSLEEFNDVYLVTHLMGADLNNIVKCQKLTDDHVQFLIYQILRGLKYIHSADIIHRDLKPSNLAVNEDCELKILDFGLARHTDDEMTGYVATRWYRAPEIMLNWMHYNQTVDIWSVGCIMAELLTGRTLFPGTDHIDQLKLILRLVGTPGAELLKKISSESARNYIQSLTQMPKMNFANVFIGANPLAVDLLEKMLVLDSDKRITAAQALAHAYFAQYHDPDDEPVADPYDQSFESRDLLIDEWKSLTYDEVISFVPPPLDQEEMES

SMILES	IC50 (activated p38)	IC50 [1]	IC50 [2]	IC50 [3]	IC50 [4]	IC50 [5]
Cc1ccccc1Sc1ccc2c(-c3c(Cl)cccc3Cl)c(=O)ncn2n1 [Compound 23]	100 to 1000 nM	≥ 500 nM	≥ 500 nM	≥ 500 nM	100 to 500 nM	≥ 500 nM
NC(=O)C(c1cccc(-c2ccc(Cl)cc2Cl)n1)c1c(F)cccc1Cl (stereo not drawn) [Compound 346]	100 to 1000 nM	≥ 500 nM	≥ 500 nM	≥ 500 nM	≥ 500 nM	≥ 500 nM
Nc1cc(F)ccc1Sc1ccc2c(-c3c(Cl)cccc3Cl)c(=O)ncn2n1 [Compound 35]	100 to 1000 nM	≥ 500 nM	≥ 500 nM	≥ 500 nM	100 to 500 nM	≥ 500 nM
CN(C)/C=N\c1ccc(C2=C3C=CC(Sc4ccc(F)cc4Cl)=NN3CNC2=O)c(Cl)c1 [Compound 140]	≤ 100 nM	250 to 500 nM	≥ 500 nM	250 to 500 nM	≤ 100 nM	≤ 100 nM
O=C1NCN2N=C(Sc3ccccc3CNc3ncc[nH]3)C=CC2=C1c1c(Cl)cccc1Cl [Compound 123]	100 to 1000 nM	≥ 500 nM	≥ 500 nM	≥ 500 nM	100 to 500 nM	100 to 500 nM
O=C1NCN2N=C(Sc3ccccc3C(=O)O)C=CC2=C1c1c(Cl)cccc1Cl [Compound 104]	100 to 1000 nM	≥ 500 nM	≥ 500 nM	≥ 500 nM	100 to 500 nM	100 to 500 nM
Cc1ccc(SC2=NN3CNC(=O)C(c4c(Cl)cccc4Cl)=C3C=C2)c(C)c1 [Compound 113]	≤ 100 nM	≥ 500 nM	≥ 500 nM	≥ 500 nM	≤ 100 nM	100 to 500 nM
NC(=O)C(c1cccc(-c2ccccc2/C=N\O)n1)c1c(Cl)cccc1Cl (stereo not drawn) [Compound 307]	≤ 100 nM	≥ 500 nM	≥ 500 nM	≥ 500 nM	100 to 500 nM	≥ 500 nM
Cc1ccccc1-c1cccc(N(C(N)=O)c2c(Cl)cccc2Cl)n1 [Compound 402]	≤ 100 nM	≥ 500 nM	≥ 500 nM	≥ 500 nM	≤ 100 nM	≤ 100 nM
Cc1ccccc1SC1=NN2CNC(=O)C(c3c(Cl)cccc3Cl)=C2C=C1 [Compound 102]	≤ 100 nM	≥ 500 nM	250 to 500 nM	250 to 500 nM	≤ 100 nM	≤ 100 nM
COc1ccc(-c2c(=O)ncn3nc(Sc4ccc(F)cc4)ccc23)c(Cl)c1OC [Compound 36]	≥ 1000 nM	≥ 500 nM	≥ 500 nM	≥ 500 nM	≥ 500 nM	≥ 500 nM
Cc1ccc(Sc2ccc3c(-c4c(Cl)cccc4Cl)c(=O)ncn3n2)c(C)c1 [Compound 32]	100 to 1000 nM	≥ 500 nM	≥ 500 nM	≥ 500 nM	≥ 500 nM	100 to 500 nM
CC(C)(C)OC(=O)Nc1ccccc1SC1=NN2CNC(=O)C(c3c(Cl)cccc3Cl)=C2C=C1 [Compound 112]	100 to 1000 nM	≥ 500 nM	≥ 500 nM	≥ 500 nM	100 to 500 nM	≥ 500 nM
NC(=O)C(c1ccc(Sc2ccccc2)cn1)c1c(Cl)cccc1Cl (stereo not drawn) [Compound 201]	100 to 1000 nM	≥ 500 nM	≤ 250 nM	≥ 500 nM	≥ 500 nM	≥ 500 nM
NC(=O)C(c1cccc(-c2ccccc2)n1)c1c(F)cccc1Cl (stereo not drawn) [Compound 306]	100 to 1000 nM	≥ 500 nM	≥ 500 nM	≥ 500 nM	100 to 500 nM	≥ 500 nM
NCc1ccccc1SC1=NN2CNC(=O)C(c3c(Cl)cccc3Cl)=C2C=C1 [Compound 118]	100 to 1000 nM	≥ 500 nM	≥ 500 nM	≥ 500 nM	100 to 500 nM	100 to 500 nM
Nc1ccccc1SC1=NN2CNC(=O)C(c3c(Cl)cccc3Cl)=C2C=C1 [Compound 115]	≤ 100 nM	≥ 500 nM	≥ 500 nM	≥ 500 nM	≤ 100 nM	≤ 100 nM
